From ChEMBL document CHEMBL6083249, “The journey of p38 MAP kinase inhibitors: From bench to bedside in treating inflammatory diseases” (Eur J Med Chem, 2024)
Blank lines part the entries; values can stand above or below the compound they belong to.

Experiments:
[1] = biological target: Serine/threonine-protein kinase Sgk1 (Homo sapiens) (UniProt O00141); test: Inhibition of SGK1 (unknown origin) at 1 uM by Z'LYTE kinase assay relative to control; conditions: values are per cent of control
Homo sapiens [2] = species on record: Homo sapiens; test: Inhibition of CK1 (unknown origin) at 10 uM relative to control; conditions: values are per cent of control
[3] = biological target: Protein kinase C alpha type (Homo sapiens, UniProt P17252); test: Inhibition of PKCalpha (unknown origin) at 1 uM in presence of ATP relative to control; conditions: values are per cent of control
Homo sapiens [4] = species on record: Homo sapiens; test: Inhibition of PKA (unknown origin) at 1 uM relative to control; conditions: values are per cent of control
[5] = biological target: Dual specificity tyrosine-phosphorylation-regulated kinase 1A (Homo sapiens) (UniProt Q13627); test: Inhibition of DYRK1A (unknown origin) at 10 uM relative to control; conditions: values are per cent of control
[6] = biological target: Dual specificity tyrosine-phosphorylation-regulated kinase 1A (Homo sapiens) (UniProt Q13627); test: Inhibition of DYRK1A (unknown origin) at 1 uM relative to control; conditions: values are per cent of control
[7] = biological target: Ribosomal protein S6 kinase beta-1 (Homo sapiens) (UniProt P23443); test: Inhibition of S6K1 (unknown origin) at 1 uM relative to control; conditions: values are per cent of control
[8] = biological target: Dual specificity mitogen-activated protein kinase kinase 1 (Homo sapiens) (UniProt Q02750); test: Inhibition of MKK1 (unknown origin) at 1 uM relative to control; conditions: values are per cent of control
[9] = biological target: Ribosomal protein S6 kinase alpha-1 (Homo sapiens) (UniProt Q15418); test: Inhibition of RSK1 (unknown origin) at 1 uM relative to control; conditions: values are per cent of control
Homo sapiens [10] = species on record: Homo sapiens; test: Inhibition of CK1 (unknown origin) at 1 uM relative to control; conditions: values are per cent of control
[11] = biological target: Casein kinase 2 (Homo sapiens) (UniProt P67870+P68400+P19784+Q8NEV1); test: Inhibition of CK2 (unknown origin) at 1 uM relative to control; format: protein assay; conditions: values are per cent of control
[12] = biological target: Mitogen-activated protein kinase 8 (Homo sapiens) (UniProt P45983); test: Inhibition of JNK1alpha1 (unknown origin) at 1 uM relative to control; conditions: values are per cent of control
[13] = biological target: Mitogen-activated protein kinase 1 (Homo sapiens) (UniProt P28482); test: Inhibition of ERK2 (unknown origin) at 1 uM relative to control; conditions: values are per cent of control
[14] = biological target: MAP kinase-activated protein kinase 5 (Homo sapiens) (UniProt Q8IW41); test: Inhibition of PRAK (unknown origin) at 1 uM relative to control; conditions: values are per cent of control
[15] = biological target: Rho-associated protein kinase 2 (Homo sapiens) (UniProt O75116); test: Inhibition of ROCK2 (unknown origin) at 1 uM relative to control; conditions: values are per cent of control
Homo sapiens [16] = species on record: Homo sapiens; test: Inhibition of P70S6K (unknown origin) in presence of 10 uM ATP by Z'-LYTE biochemical assay relative to control
[17] = AUC (0 to infinity) in Sprague-Dawley rat at 20 mg/kg, po by LC-MS/MS analysis; format: ADME, organism-based; conditions: in vivo
[18] = biological target: 3',5'-cyclic-AMP phosphodiesterase 4C (Homo sapiens, UniProt Q08493); test: Inhibition of PDE4C (unknown origin)
[19] = Plasma protein binding in cynomolgus monkey assessed as unbound fraction at 30 uM incubated for 6 hrs by LC-MS/MS analysis; format: ADME, cell-free, Macaca fascicularis
[20] = Tmax in Sprague-Dawley rat at 30 mg/kg, po by LC-MS analysis; format: ADME, organism-based; conditions: in vivo
[21] = Half life in Sprague-Dawley rat at 30 mg/kg, po by LC-MS/MS analysis; format: ADME, organism-based; conditions: in vivo
[22] = Plasma protein binding in cynomolgus monkey assessed as unbound fraction at 10 uM incubated for 6 hrs by LC-MS/MS analysis; format: ADME, cell-free, Macaca fascicularis
[23] = biological target: Mitogen-activated protein kinase 14 (Homo sapiens) (UniProt Q16539); test: Inhibition of p38alpha (unknown origin) at 10 uM in presence of ATP relative to control
[24] = Cmax in Sprague-Dawley rat at 50 mg/kg, po by LC-MS analysis; format: ADME, organism-based; conditions: in vivo
[25] = AUC (0 to t) in Sprague-Dawley rat at 10 mg/kg, po by LC-MS analysis; format: ADME, organism-based; conditions: in vivo
[26] = Tmax in Sprague-Dawley rat at 20 mg/kg, po by LC-MS analysis; format: ADME, organism-based; conditions: in vivo
[27] = Half life in Sprague-Dawley rat at 20 mg/kg, po by LC-MS/MS analysis; format: ADME, organism-based; conditions: in vivo
[28] = Plasma protein binding in Sprague-Dawley rat assessed as unbound fraction at 1 uM incubated for 6 hrs by LC-MS/MS analysis; format: ADME, cell-free
[29] = Cmax in Sprague-Dawley rat at 10 mg/kg, po by LC-MS analysis; format: ADME, organism-based; conditions: in vivo
[30] = AUC (0 to infinity) in Sprague-Dawley rat at 10 mg/kg, po by LC-MS/MS analysis; format: ADME, organism-based; conditions: in vivo
[31] = biological target: CDK7/Cyclin H/MNAT1 (Homo sapiens) (UniProt P51946+P50613+P51948); test: Inhibition of CDK7/cyclinH/MAT1 (unknown origin) at 10 uM in presence of ATP relative to control; format: protein-complex assay
[32] = Plasma protein binding in human assessed as unbound fraction at 1 uM incubated for 6 hrs by LC-MS/MS analysis; format: ADME, cell-free
[33] = AUC (0 to t) in Sprague-Dawley rat at 30 mg/kg, po by LC-MS analysis; format: ADME, organism-based; conditions: in vivo
[34] = AUC (0 to t) in Sprague-Dawley rat at 20 mg/kg, po by LC-MS analysis; format: ADME, organism-based; conditions: in vivo
[35] = Half life in Sprague-Dawley rat at 10 mg/kg, po by LC-MS/MS analysis; format: ADME, organism-based; conditions: in vivo
[36] = Cmax in Sprague-Dawley rat at 20 mg/kg, po measured for 24 hrs by LC-MS/MS analysis; format: ADME, organism-based; conditions: in vivo
[37] = AUC (0 to infinity) in Sprague-Dawley rat at 30 mg/kg, po by LC-MS/MS analysis; format: ADME, organism-based; conditions: in vivo
[38] = AUC (0 to infinity) in Sprague-Dawley rat at 50 mg/kg, po by LC-MS/MS analysis; format: ADME, organism-based; conditions: in vivo
[39] = Plasma protein binding in Sprague-Dawley rat assessed as unbound fraction at 10 uM incubated for 6 hrs by LC-MS/MS analysis; format: ADME, cell-free
[40] = Half life in Sprague-Dawley rat at 50 mg/kg, po by LC-MS/MS analysis; format: ADME, organism-based; conditions: in vivo
[41] = biological target: 3',5'-cyclic-AMP phosphodiesterase 4B (Homo sapiens, UniProt Q07343); test: Inhibition of PDE4B1 (unknown origin)
[42] = AUC (0 to infinity) in Sprague-Dawley rat at 20 mg/kg, po measured for 24 hrs by LC-MS/MS analysis; format: ADME, organism-based; conditions: in vivo
[43] = biological target: Casein kinase I isoform alpha (Homo sapiens) (UniProt P48729); test: Inhibition of CK1 alpha (unknown origin) at 10 uM relative ton control
[44] = Plasma protein binding in human assessed as unbound fraction at 30 uM incubated for 6 hrs by LC-MS/MS analysis; format: ADME, cell-free
[45] = Plasma protein binding in human assessed as unbound fraction at 10 uM incubated for 6 hrs by LC-MS/MS analysis; format: ADME, cell-free
[46] = AUC (0 to t) in Sprague-Dawley rat at 50 mg/kg, po by LC-MS analysis; format: ADME, organism-based; conditions: in vivo
[47] = Tmax in Sprague-Dawley rat at 50 mg/kg, po by LC-MS analysis; format: ADME, organism-based; conditions: in vivo
Homo sapiens [48] = species on record: Homo sapiens; test: Inhibition of MKK6 (unknown origin) at 10 uM relative to control
[49] = Plasma protein binding in Sprague-Dawley rat assessed as unbound fraction at 30 uM incubated for 6 hrs by LC-MS/MS analysis; format: ADME, cell-free
[50] = biological target: Cyclin-dependent kinase 18 (Homo sapiens) (UniProt Q07002); test: Inhibition of CDK18 (unknown origin) at 10 uM relative to control
[51] = Plasma protein binding in cynomolgus monkey assessed as unbound fraction at 1 uM incubated for 6 hrs by LC-MS/MS analysis; format: ADME, cell-free, Macaca fascicularis
[52] = Tmax in Sprague-Dawley rat at 10 mg/kg, po by LC-MS analysis; format: ADME, organism-based; conditions: in vivo
[53] = AUC (0 to t) in Beagle dog at 40 mg/kg, po by LC-MS/MS analysis; format: ADME, organism-based, Canis lupus familiaris; conditions: in vivo

Sequence of Ribosomal protein S6 kinase alpha-1 (Homo sapiens) (Q15418 whole entry): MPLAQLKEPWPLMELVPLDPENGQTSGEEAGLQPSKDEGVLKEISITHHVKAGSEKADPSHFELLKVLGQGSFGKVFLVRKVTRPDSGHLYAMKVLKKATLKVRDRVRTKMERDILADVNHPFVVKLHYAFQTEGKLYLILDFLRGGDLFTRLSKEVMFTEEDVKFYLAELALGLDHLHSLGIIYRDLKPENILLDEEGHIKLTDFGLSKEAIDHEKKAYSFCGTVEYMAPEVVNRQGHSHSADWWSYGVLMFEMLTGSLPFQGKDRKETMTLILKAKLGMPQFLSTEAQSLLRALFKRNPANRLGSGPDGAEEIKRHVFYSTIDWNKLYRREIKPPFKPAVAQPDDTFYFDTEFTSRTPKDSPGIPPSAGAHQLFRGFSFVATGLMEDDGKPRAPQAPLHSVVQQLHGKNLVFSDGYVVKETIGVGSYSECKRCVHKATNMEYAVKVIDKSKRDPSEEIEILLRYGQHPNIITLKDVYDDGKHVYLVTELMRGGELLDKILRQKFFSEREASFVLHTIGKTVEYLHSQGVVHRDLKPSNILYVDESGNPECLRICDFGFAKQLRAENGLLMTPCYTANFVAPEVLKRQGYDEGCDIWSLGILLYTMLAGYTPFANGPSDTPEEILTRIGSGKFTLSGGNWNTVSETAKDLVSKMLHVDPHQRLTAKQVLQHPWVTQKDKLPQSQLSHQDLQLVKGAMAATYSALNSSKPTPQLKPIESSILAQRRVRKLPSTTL
Sequence of 3',5'-cyclic-AMP phosphodiesterase 4C (Q08493 whole entry): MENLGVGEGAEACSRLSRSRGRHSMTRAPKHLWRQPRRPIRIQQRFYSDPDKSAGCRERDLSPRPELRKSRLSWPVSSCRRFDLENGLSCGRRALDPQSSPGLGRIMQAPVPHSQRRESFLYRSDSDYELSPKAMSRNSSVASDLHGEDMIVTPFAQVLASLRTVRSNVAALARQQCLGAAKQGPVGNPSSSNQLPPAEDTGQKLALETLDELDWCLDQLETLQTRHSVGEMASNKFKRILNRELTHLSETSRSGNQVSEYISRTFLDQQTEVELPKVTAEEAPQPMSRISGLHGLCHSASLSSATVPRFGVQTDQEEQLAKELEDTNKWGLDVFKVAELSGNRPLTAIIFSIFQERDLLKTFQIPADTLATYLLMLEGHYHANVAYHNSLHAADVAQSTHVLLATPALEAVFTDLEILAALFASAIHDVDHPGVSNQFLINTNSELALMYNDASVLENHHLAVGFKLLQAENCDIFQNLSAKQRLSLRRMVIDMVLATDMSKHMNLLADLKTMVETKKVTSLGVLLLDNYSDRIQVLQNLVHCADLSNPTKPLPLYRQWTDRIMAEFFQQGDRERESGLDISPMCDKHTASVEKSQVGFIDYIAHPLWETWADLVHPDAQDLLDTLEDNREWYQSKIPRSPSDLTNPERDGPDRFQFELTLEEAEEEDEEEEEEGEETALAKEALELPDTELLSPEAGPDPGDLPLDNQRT
Sequence of Mitogen-activated protein kinase 8 (Homo sapiens) (P45983 whole entry): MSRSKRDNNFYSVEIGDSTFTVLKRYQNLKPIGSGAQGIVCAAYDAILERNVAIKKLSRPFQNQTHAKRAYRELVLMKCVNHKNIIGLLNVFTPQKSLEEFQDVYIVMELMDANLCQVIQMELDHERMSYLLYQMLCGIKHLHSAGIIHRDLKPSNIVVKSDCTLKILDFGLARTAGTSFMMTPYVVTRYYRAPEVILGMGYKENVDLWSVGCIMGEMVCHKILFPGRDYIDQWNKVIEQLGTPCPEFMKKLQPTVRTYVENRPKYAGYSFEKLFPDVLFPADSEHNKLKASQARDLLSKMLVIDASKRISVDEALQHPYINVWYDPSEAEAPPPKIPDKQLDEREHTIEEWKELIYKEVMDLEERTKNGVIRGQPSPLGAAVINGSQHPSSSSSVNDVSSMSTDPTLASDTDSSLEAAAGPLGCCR
Sequence of Mitogen-activated protein kinase 1 (Homo sapiens) (P28482 whole entry): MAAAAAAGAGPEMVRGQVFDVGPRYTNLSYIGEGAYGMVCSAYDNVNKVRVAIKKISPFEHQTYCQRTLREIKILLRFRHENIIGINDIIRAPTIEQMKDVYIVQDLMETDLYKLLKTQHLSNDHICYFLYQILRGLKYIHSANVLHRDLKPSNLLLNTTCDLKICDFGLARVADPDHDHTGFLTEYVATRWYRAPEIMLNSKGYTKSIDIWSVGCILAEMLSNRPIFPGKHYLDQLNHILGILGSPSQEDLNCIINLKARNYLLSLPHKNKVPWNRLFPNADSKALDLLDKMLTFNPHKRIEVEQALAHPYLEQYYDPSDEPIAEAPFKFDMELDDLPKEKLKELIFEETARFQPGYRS
Sequence of Serine/threonine-protein kinase Sgk1 (Homo sapiens) (O00141 whole entry): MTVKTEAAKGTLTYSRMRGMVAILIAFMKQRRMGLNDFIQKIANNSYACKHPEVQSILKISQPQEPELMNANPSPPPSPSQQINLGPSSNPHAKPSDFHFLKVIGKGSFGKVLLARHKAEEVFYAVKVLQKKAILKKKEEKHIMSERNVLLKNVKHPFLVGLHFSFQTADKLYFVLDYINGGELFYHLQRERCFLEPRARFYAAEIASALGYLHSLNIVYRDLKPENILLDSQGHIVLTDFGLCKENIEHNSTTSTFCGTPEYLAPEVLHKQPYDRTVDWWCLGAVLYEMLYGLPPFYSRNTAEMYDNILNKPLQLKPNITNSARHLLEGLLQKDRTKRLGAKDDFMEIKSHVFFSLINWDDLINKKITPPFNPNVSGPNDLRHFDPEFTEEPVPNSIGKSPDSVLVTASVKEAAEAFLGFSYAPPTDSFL
Sequence of Dual specificity mitogen-activated protein kinase kinase 1 (Homo sapiens) (Q02750 whole entry): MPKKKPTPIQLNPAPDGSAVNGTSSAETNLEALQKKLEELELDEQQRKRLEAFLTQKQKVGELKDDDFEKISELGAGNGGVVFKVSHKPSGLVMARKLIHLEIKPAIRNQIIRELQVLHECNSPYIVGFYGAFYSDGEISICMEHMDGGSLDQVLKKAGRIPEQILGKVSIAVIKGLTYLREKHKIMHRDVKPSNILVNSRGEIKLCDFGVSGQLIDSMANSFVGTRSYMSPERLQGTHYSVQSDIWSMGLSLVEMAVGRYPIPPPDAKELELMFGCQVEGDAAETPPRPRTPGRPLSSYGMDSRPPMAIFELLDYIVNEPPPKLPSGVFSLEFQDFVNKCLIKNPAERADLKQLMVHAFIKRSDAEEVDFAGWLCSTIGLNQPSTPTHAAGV
Sequence of Casein kinase I isoform alpha (Homo sapiens) (P48729 2-337 limits assumed): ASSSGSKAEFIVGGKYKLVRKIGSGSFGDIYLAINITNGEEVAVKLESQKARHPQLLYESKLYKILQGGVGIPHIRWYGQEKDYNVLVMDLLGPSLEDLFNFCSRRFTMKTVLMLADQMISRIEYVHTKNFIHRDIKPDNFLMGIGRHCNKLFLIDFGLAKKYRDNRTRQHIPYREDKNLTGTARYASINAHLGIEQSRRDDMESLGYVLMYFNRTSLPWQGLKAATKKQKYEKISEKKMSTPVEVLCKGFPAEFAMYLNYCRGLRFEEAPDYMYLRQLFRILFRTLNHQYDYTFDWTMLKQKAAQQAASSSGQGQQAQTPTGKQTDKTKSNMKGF
Sequence of Mitogen-activated protein kinase 14 (Homo sapiens) (Q16539 whole entry): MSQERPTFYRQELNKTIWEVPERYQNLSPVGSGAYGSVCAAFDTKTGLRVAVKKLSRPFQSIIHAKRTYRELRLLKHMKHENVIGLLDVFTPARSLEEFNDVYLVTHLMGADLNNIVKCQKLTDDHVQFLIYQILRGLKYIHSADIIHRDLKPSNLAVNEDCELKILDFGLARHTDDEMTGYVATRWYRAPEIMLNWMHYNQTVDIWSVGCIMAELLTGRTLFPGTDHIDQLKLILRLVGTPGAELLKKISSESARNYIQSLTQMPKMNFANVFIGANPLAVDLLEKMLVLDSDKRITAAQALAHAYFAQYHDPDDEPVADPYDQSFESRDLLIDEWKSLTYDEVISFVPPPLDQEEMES
Sequence of Ribosomal protein S6 kinase beta-1 (Homo sapiens) (P23443 whole entry, looked up): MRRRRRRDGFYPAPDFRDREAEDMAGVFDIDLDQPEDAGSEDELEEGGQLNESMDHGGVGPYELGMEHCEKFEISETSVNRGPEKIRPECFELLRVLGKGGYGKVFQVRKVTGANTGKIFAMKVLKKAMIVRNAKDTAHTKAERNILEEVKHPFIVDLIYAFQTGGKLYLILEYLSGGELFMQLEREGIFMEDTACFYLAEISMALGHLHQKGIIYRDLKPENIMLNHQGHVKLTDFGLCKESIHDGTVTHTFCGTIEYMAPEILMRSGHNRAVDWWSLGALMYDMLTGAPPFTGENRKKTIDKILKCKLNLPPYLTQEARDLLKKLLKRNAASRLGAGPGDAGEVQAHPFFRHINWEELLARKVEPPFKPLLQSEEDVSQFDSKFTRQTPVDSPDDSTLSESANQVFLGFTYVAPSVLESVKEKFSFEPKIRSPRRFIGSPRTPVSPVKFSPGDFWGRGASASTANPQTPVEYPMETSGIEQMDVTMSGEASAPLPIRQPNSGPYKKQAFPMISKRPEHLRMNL

residual activity [1]: 94% | residual activity (Homo sapiens [2]): 84% | residual activity [3]: 80% | residual activity (Homo sapiens [4]): 88% | residual activity [5]: 79% | residual activity [6]: 82% | residual activity [7]: 119% | residual activity [8]: 71% | residual activity [9]: 59% | residual activity (Homo sapiens [10]): 87% | residual activity [11]: 85% | residual activity [12]: 70% | residual activity [13]: 79% | residual activity [14]: 71% | residual activity [15]: 80%
SMILES: Cc1ccc(-n2nc(C(C)(C)C)cc2NC(=O)Nc2ccc(OCCN3CCOCC3)c3ccccc23)cc1

inhibition (Homo sapiens [16]): 32% | AUC [17]: 2.24 µM·h | IC50 [18]: 6.4 µM | fraction unbound at 6 h, 30 µM [19]: 0.583 | Tmax [20]: 2.3 h | half-life [21]: 3.4 h | fraction unbound at 6 h, 10 µM [22]: 0.611 | inhibition [23]: 35% | Cmax [24]: 590 nM | AUCt [25]: 0.95 µM·h | Tmax [26]: 2.9 h | half-life [27]: 3.3 h | fraction unbound at 6 h, 1 µM [28]: 0.863 | Cmax [29]: 200 nM | AUC [30]: 1.04 µM·h | inhibition [31]: 54% | fraction unbound at 6 h, 1 µM [32]: 0.9 | AUCt [33]: 0.42 µM·h | AUCt [34]: 0.31 µM·h | half-life [35]: 2.7 h | Cmax [36]: 314 nM | AUC [37]: 3.05 µM·h | AUC [38]: 3.58 µM·h | fraction unbound at 6 h, 10 µM [39]: 0.631 | half-life [40]: 3.2 h | IC50 [41]: 1.9 µM | AUC [42]: 2.24 µM·h | inhibition [43]: 97% | fraction unbound at 6 h, 30 µM [44]: 0.781 | fraction unbound at 6 h, 10 µM [45]: 0.806 | AUCt [46]: 3.4 µM·h | Tmax [47]: 1.5 h | inhibition (Homo sapiens [48]): 62% | fraction unbound at 6 h, 30 µM [49]: 0.754 | inhibition [50]: 94% | fraction unbound at 6 h, 1 µM [51]: 0.667 | Tmax [52]: 2.2 h | AUCt [53]: 93.4 µM·h
SMILES: CC(=O)Nc1cc(-c2c(-c3ccc(F)cc3)nc([S+](C)[O-])n2C)ccn1 (stereo not drawn)
